Data set [1] in a line: Peroxide value (PV) by chlorimetric ferric thiocyanate method after storage. In kind it is physicochemical. As to conditions: after storage in open glass; spectrophotometric ferric thiocyanate method; unit assumed. The text has this: The present invention also contemplates stabilization of CLA containing compounds, including but not limited to, CLA, esters of CLA, and triglycerides of CLA by preventing oxidation of the compounds. The present invention is not limited to any one mechanism. Indeed, an understanding of the mechanism of the invention is not necessary to produce the composition or perform the methods of the present invention. […] After storage in open glass, the PV of CLA was 32; in comparison, the value for linoleic acid was 370.

For data set [2], the system named is rat mammary tumorigenesis. Conditions: administration of CLA; Birt et al. 1992; cited from earlier work.
Data set [3] has as its system human melanoma, colorectal and breast cancer cells. As to conditions: in vitro; cited from earlier work.
For data set [4] the following is noted: diets containing 0.5 percent CLA; pigs, mice, humans; U.S. Pat. No. 5,554,646; cited from earlier work.

`CCCCC/C=C\C/C=C\CCCCCCCC(=O)O` [linoleic acid] came in with a peroxide value (PV) in data set [1] of 370 meq/kg.
In data set [1], conjugated linoleic acid [CLA] showed a peroxide value (PV) of 32 meq/kg. Moreover, in data set [2], the rat mammary tumorigenesis result was “inhibits rat mammary tumorigenesis”. The cytotoxicity entry in data set [3] was “strong cytotoxic agent”. The fat content result in data set [4] is “significant drop in fat content”.

Values taken from patent US7115759B2, “Conjugated linoleic acid compositions” (Natural ASA, priority 2002, dated 2006).
